Assays:
Type in all cases: in vivo
[1] = tested on: NZB/W F1 female mice; assay: Proteinuria and renal function, murine lupus nephritis; conditions: vs. control, FIG. 3
Procedure: (§1) Treatment was given from six to nine old months. Body weight was determined twice a month. Mice were placed in metabolic cages to collect 24-hour urine specimens before treatment, and again at six, seven and eight months. Blood was obtained from the tail vein at the same intervals. At the end of the follow-up, survivor animals were sacrificed and kidney processed for histological studies.

[2] = tested on: NZB/W F1 female mice; assay: Spleen weight and splenocyte B cell populations, murine lupus nephritis; conditions: FIG. 9
[3] = tested on: NZB/W F1 female mice; assay: Survival of NZB/W F1 mice with lupus nephritis under treatment; conditions: intraperitoneal treatment from six to nine months of age
Procedure: Animals NZB/W F1 female mice (Charles River, Spain) were used. […] Mice were housed in a constant temperature room with a 12-hour dark/12-hour light cycle, and were given free access to water and a standard laboratory diet.
as §1
Data are expressed as mean+SE. Overall survival was analyzed by the Kaplan-Meier method. […] All P-values were two-tailed, and a P-value <0.05 was considered significant.

[4] = tested on: NZB/W F1 female mice; assay: Anti-DNA antibodies in serum by ELISA, murine lupus nephritis; conditions: FIG. 2
Procedure: Urinary protein concentration was determined by a commercial kit based on the Ponceau method (BayerDiagnostics, Madrid, Spain). Serum creatinine levels (in milligrams per decilitre) were determined by Jaffés method on an autoanalyzer (Beckman Instruments, Palo Alto, Calif.) at the end of the follow-up. Anti-DNA antibodies levels of anti-DNA antibodies were measured before treatment, and subsequently each month and at sacrifice, using a commercially available ELISA kit (Alpha Diagnostic International, San Antonio, Tex., USA) according to manufacturer's instructions (serum diluted 1:100). This kit is based on a purified dsDNA coated microwell plate. Antibodies to dsDNA are directed against the phosphate-deoxyribose backbone of the DNA molecule. Anti-dsDNA from serum samples bind to extracted nuclear antigen immobilized on microtiter wells. Anti-mouse IgG-HRP conjugate is added, and the colour developed by chromogenic substrate addition. The enzymatic reaction (blue colour) is directly proportional to the amount of the anti-dsDNA in the sample. Kits contain positive and negative controls, and anti-DNA antibodies are estimated in a semi-quantitative way according to the optical density (o.d. 450).

[5] = tested on: NZB/W F1 female mice; assay: Renal immunofluorescence of glomerular IgG and C3 deposition, murine lupus nephritis; conditions: FIG. 7
Procedure: Renal immunofluorescence. For analysis of Ig and complement deposition, fluorescent staining of cryosections was used. Five-micrometer cryostat sections were fixed in acetone at −80° C. for 20 minutes, then blocked with 20% normal goat serum and directly stained with FITC-conjugated goat anti-mouse IgG at 1/300 (Sigma-Aldrich). To stain for complement, slides were then sequentially incubated in rat anti-mouse complement C3, at 1/50 (Cedarlane Laboratories Limited), followed by Alexa Fluor 546-conjugated goat anti-rat IgG at 1/1000 (Invitrogen, Molecular Probes). At least 30 glomeruli, visualized and photographed with an immunofluorescence microscope, from each animal were examined in a binded manner. A semiquantitative score of staining intensity and distribution from 0 to 4+ was given, where 0+ denotes no signal; 1+, minimal signal; 2+, low signal; 3+, moderate signal and 4+, strong signal intensity.

O=P1(N(CCCl)CCCl)NCCCO1 (centres unmarked) [CYP, cyclophosphamide]
proteinuria [1]: significantly lower
proportion of B cells in splenocytes [2]: markedly reduced
Cumulative survival analyzed by the Kaplan-Meier method [3]: 100%
anti-dsDNA titers [4]: lower
glomerular deposition of C3 [5]: more effective in reducing C3 deposition than costimulatory blockade

Reference: patent publication US20140315981A1, “STRATEGIES FOR PREVENTION AND/OR TREATMENT OF DISEASES BASED ON CD40 SILENCING” (FUNDACIO INSTITUT D'INVESTIGACIO BIOMEDICA DE BELLVITGE …, priority 2011, published 2014)
